Results taken from patent US9283224B2, “Substituted pyrimidinyl-pyrroles active as kinase inhibitors” (NERVIANO MEDICAL SCIENCES S.R.L., priority 2012, dated 2016).
pIC50: −log10 of the molar value. Where two headings read alike, the source gives them in different places.

Legend:
[1] = system: JAK2 dependent human megakaryoblastic leukemia cell line SET-2; assay: Cell proliferation assay (CellTiter-Glo, 72 hours), SET-2; type: cell-based; settings: for pIC50: Homo sapiens, read-out: SET-2 IC50; for Ratio K-562 (IC50)/SET-2 (IC50): selectivity for JAK2 dependent SET-2 vs JAK2 independent K-562 cell line
Procedure: (§1) the JAK2 dependent human megakaryoblastic leukemia cell line SET-2 (DSMZ, Braunschweig GERMANY), and JAK2 independent human chronic myelogenous leukaemia cell line K562 (ECACC, Wiltshire, UK) were cultured in RPMI-1640 medium-Glutamax (Gibco BRL, Gaithesburg, Md., USA), supplemented with 10% fetal bovine serum (FBS) at 37° C. and 5% CO2.
(§2) Approximately 5×10^3 cells were plated into 384 microtiter plate wells in 50 μL of growth media with different concentrations of inhibitors. The cells were incubated at 37° C. and 5% CO2 for 72 hours, than the plates were processed using CellTiter-Glo assay (Promega, Madison, Wis., USA) following the manufacturer's instruction. Briefly 25 μL/well reagent solution are added to each wells and after 5 minutes shacking micro-plates are read by Envision luminometer (PerkinElmer, Waltham, Mass., USA).
(§3) Data are analyzed by Symix Assay Explorer software (Symix Technologies Inc.) that provides sigmoidal fitting algorithm of the 8 points dilutions curves for […] determination.

JAK2 kinase domain = molecular target: T1, JAK2 kinase domain (Homo sapiens, UniProt O60674); assay: Biochemical assay for inhibitors of JAK2 kinase activity (33P-γ-ATP, dowex resin); settings: 1 nM enzyme, 60 μM ATP, 60 minutes at room temperature
T1 construct: commercially available JAK2 kinase domain (Invitrogen, Eugene, Oreg.); purchased Invitrogen, Eugene, Oreg
T1 sequence (O60674 849-1124 limits assumed): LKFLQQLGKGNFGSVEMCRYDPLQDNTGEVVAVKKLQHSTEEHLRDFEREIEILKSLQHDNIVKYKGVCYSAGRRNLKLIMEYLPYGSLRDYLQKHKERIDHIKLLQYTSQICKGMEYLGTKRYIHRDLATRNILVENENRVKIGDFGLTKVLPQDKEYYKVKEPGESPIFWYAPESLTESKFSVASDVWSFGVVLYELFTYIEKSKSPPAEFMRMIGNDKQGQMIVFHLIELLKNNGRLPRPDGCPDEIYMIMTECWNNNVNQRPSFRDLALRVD
Procedure: Specific JAK2, JAK1 or JAK3 peptide substrates are trans-phosphorylated by JAK kinases in the presence of ATP traced with 33P-γ-ATP. At the end of the phosphorylation reaction, the unreacted ATP, cold and radioactive, is captured by an excess of dowex ion exchange resin that eventually settles by gravity to the bottom of the reaction plate. The supernatant is subsequently withdrawn and transferred into a counting plate that is then evaluated by β-counting.
500 g of wet resin (SIGMA, custom prepared resin DOWEX 1×8 200-400 mesh, 2.5 Kg) is weighed out and diluted 2 to 1 in 150 mM sodium formate, pH 3.00. The resin is allowed to settle overnight and then the supernatant is discarded. After three washes as above over a couple of days, the resin is allowed to settle and two volumes (with respect to the resin volume) of 150 mM sodium formate buffer are added.
Kinase buffer was composed of 50 mM HEPES pH 7.5 containing 10 mM MgCl2, 2.5 mM DTT, 10 μM Na3VO4 and 0.2 mg/mL BSA.
The peptidic substrate was purchased from American Peptide Company (Sunnyvale, Calif.).
An automated station for serial dilutions (Biomek FX, Beckman) is used for producing 1:3 dilutions in 100% DMSO, from line A1 to A10, and for all the compounds in the column.
At the start of the run, the robot aspirates 5 μL of ATP mix, makes an air gap inside the tips (3 μl) and aspirates 5 μL of JAK2 mix. The following dispensation into the plates plus 3 cycles of mixing, done by the robot itself, starts the kinase reaction. At this point, the correct concentrations are restored for all the reagents. The robot incubates the plates for 60 minutes at room temperature, and then stops the reaction by pipetting 60 μL of dowex resin suspension into the reaction mix. In order to avoid tip clogging, wide bore tips are used to dispense the resin suspension. Three cycles of mixing are done immediately after the addition of the resin. Another mixing cycle is performed after all the plates are stopped, this time using normal tips: the plates are then allowed to rest for about one hour in order to allow resin sedimentation. At this point, 27 μL of the supernatant are transferred into 384-Optiplates (Perkin-Elmer), with 50 μL of Microscint 40 (Perkin-Elmer); after 5 min of orbital shaking the plates are read on a Perkin-Elmer Top Count radioactivity counter.
Data are analyzed by an internally customized version of the SW package “Assay Explorer” that provides sigmoidal fitting of the ten-dilutions curves for IC50 determination in the secondary assays/hit confirmation routines.

[2] = system: JAK2 independent human chronic myelogenous leukaemia cell line K562; assay: Cell proliferation assay (CellTiter-Glo, 72 hours), K562; type: cell-based; settings: K562 cells, read-out: K-562 IC50
Procedure: as §1, §2, §3

pIC50 ([1]; SET-2 cells, 72 hours)	Ratio K-562 (IC50)/SET-2 (IC50) [1]	SMILES	pIC50 (JAK2 kinase domain)	pIC50 [2]	pIC50 ([1]; SET-2, 72 h)
		CCc1ccc(Cl)cc1-c1[nH]c(-c2ccnc(N)n2)cc1C(N)=O [Cmpd. 5, 5-(2-Aminopyrimidin-4-yl)-2-(5-chloro-2-ethylphenyl)-1H-pyrrole-3-carboxamide]		5.27	6.68
6.31	>20	CCc1ccc(Cl)cc1-c1[nH]c(-c2ccnc(N)n2)cc1C(=O)NC [Cmpd. 35, 5-(2-Aminopyrimidin-4-yl)-2-(5-chloro-2-ethylphenyl)-N-methyl-1H-pyrrole-3-carboxamide]	8.05	< 5.00	
6.21	>16	CCNC(=O)c1cc(-c2ccnc(N)n2)[nH]c1-c1cc(Cl)ccc1CC [Cmpd. 36, 5-(2-Aminopyrimidin-4-yl)-2-(5-chloro-2-ethylphenyl)-N-ethyl-1H-pyrrole-3-carboxamide]	7.89	< 5.00	
6.20	>16	CNC(=O)c1cc(-c2ccnc(N)n2)[nH]c1-c1cc(C(F)(F)F)ccc1Cl [Cmpd. 39, 5-(2-Aminopyrimidin-4-yl)-2-[2-chloro-5-(trifluoromethyl)phenyl]-N-methyl-1H-pyrrole-3-carboxamide]		< 5.00	
		CNc1nccc(-c2cc(C(N)=O)c(-c3cc(Cl)ccc3C)[nH]2)n1 [Cmpd. 42, 2-(5-Chloro-2-methylphenyl)-5-[2-(methylamino)pyrimidin-4-yl]-1H-pyrrole-3-carboxamide]		< 5.00	
6.51	>20	CCc1ccc(C(F)(F)F)cc1-c1[nH]c(-c2ccnc(N)n2)cc1C(=O)NC [Cmpd. 51, 5-(2-Aminopyrimidin-4-yl)-2-[2-ethyl-5-(trifluoromethyl)phenyl]-N-methyl-1H-pyrrole-3-carboxamide]	8.70	< 5.00	
		Cc1ccc(Cl)cc1-c1[nH]c(-c2ccnc(N)n2)cc1C(N)=O [Ref. cmpd. (F25), 5-(2-amino-pyrimidin-4-yl)-2-(5-chloro-2-methyl-phenyl)-1H-pyrrole-3-carboxamide, reference compound]		5.70	6.37

SMILES	pIC50 ([1]; SET-2 cells, 72 hours)	Ratio K-562 (IC50)/SET-2 (IC50) [1]	pIC50 (JAK2 kinase domain)	pIC50 [2]	pIC50 ([1]; SET-2, 72 h)
NC(=O)c1cc(-c2ccnc(N)n2)[nH]c1-c1cc(C(F)(F)F)ccc1Cl [Cmpd. 1, 5-(2-Aminopyrimidin-4-yl)-2-[2-chloro-5-(trifluoromethyl)phenyl]-1H-pyrrole-3-carboxamide]	6.24	13	8.10	5.12	
NC(=O)c1cc(-c2ccnc(N)n2)[nH]c1-c1cc(Cl)ccc1Cl [Cmpd. 2, 5-(2-Aminopyrimidin-4-yl)-2-(2,5-dichlorophenyl)-1H-pyrrole-3-carboxamide]	6.15	9.8	7.92	5.16	
CCc1ccc(C(F)(F)F)cc1-c1[nH]c(-c2ccnc(N)n2)cc1C(N)=O [Cmpd. 16, 5-(2-Aminopyrimidin-4-yl)-2-[2-ethyl-5-(trifluoromethyl)phenyl]-1H-pyrrole-3-carboxamide]	6.41	9.43	8.70	5.43	
